Data taken from ChEMBL document CHEMBL1122266, “Ring-substituted 1,2-dialkylated 1,2-bis(hydroxyphenyl)ethanes. 1. Synthesis and estrogen receptor binding affinity of 2,2'- and 3,3'-disubstituted hexestrols” (J Med Chem, 1983).
Values joined by “and” are separate entries in the source; they are usually repeats but may differ in a detail not shown here. Identical values can stand only once.

Key:
[1] = target: T1, Estrogen receptor (Mus musculus) (UniProt O08537+P19785); experiment: Inhibition of anti-uterotrophic activity in mice at 5 ug/day (%inhibition=100-(E S,T-EV)x100); assay type: functional
[2] = target: T1, Estrogen receptor (Mus musculus); experiment: Inhibition of anti-uterotrophic activity in mice at 25 ug/day (%inhibition=100-(E S,T-EV)x100); assay type: functional
[3] = target: T1, Estrogen receptor (Mus musculus); experiment: Estrogenic activity in uterotrophic assay in mice at 100 ug/day; assay type: functional
[4] = target: Estrogen receptor (Bos taurus) (UniProt Q9XSB5+P49884); experiment: Relative binding affinity for calf uterine estrogen receptor by 17-beta-[3H]-estradiol competition.; assay type: protein assay
[5] = target: T1, Estrogen receptor (Mus musculus); experiment: Estrogenic activity in uterotrophic assay in mice at 0.4 ug/day with estrone; assay type: functional
[6] = target: T1, Estrogen receptor (Mus musculus); experiment: Estrogenic activity in uterotrophic assay in mice at 0 ug/day; assay type: functional
[7] = target: T1, Estrogen receptor (Mus musculus); experiment: Estrogenic activity in uterotrophic assay in mice at 1 ug/day; assay type: functional
[8] = target: T1, Estrogen receptor (Mus musculus); experiment: Estrogenic activity in uterotrophic assay in mice at 10 ug/day; assay type: functional
[9] = target: T1, Estrogen receptor (Mus musculus); experiment: Estrogenic activity in uterotrophic assay in mice at 1000 ug/day; assay type: functional
[10] = target: T1, Estrogen receptor (Mus musculus); experiment: Anti-uterotrophic activity in mice at 25 ug/day
[11] = target: T1, Estrogen receptor (Mus musculus); experiment: Anti-uterotrophic activity in mice at 0 ug/day; assay type: functional
[12] = target: T1, Estrogen receptor (Mus musculus); experiment: Estrogenic activity in uterotrophic assay in mice at 250 ug/day; assay type: functional
[13] = target: T1, Estrogen receptor (Mus musculus); experiment: Anti-uterotrophic activity in mice at 100 ug/day; assay type: functional
[14] = target: T1, Estrogen receptor (Mus musculus); experiment: Inhibition of anti-uterotrophic activity in mice at 250 ug/day (%inhibition=100-(E S,T-EV)x100); assay type: functional
[15] = target: T1, Estrogen receptor (Mus musculus); experiment: Estrogenic activity in uterotrophic assay in mice at 50 ug/day; assay type: functional
[16] = target: T1, Estrogen receptor (Mus musculus); experiment: Estrogenic activity in uterotrophic assay in mice at 2 ug/day; assay type: functional
[17] = target: T1, Estrogen receptor (Mus musculus); experiment: Anti-uterotrophic activity in mice at 5 ug/day; assay type: functional
[18] = target: T1, Estrogen receptor (Mus musculus); experiment: Estrogenic activity in uterotrophic assay in mice at 500 ug/day
[19] = target: T1, Estrogen receptor (Mus musculus); experiment: Anti-uterotrophic activity in mice at 250 ug/day; assay type: functional
[20] = target: T1, Estrogen receptor (Mus musculus); experiment: Inhibition of anti-uterotrophic activity in mice at 100 ug/day (%inhibition=100-(E S,T-EV)x100); assay type: functional

T1 sequence (O08537 whole entry, looked up): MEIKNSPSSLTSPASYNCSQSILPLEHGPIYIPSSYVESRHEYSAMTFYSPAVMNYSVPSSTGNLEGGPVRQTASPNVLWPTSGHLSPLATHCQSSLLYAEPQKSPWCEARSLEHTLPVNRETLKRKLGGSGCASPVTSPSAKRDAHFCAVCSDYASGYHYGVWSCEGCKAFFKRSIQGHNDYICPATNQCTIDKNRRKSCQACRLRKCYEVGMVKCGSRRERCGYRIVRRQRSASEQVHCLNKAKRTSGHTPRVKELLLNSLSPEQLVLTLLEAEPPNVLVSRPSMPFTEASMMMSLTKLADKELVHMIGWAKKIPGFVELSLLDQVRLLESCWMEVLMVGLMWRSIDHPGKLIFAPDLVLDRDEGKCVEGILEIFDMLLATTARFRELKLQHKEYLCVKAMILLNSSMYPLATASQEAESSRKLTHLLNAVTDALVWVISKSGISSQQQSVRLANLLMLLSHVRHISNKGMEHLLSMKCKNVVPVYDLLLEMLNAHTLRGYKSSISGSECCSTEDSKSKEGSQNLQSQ
T1 sequence (P19785 whole entry, looked up): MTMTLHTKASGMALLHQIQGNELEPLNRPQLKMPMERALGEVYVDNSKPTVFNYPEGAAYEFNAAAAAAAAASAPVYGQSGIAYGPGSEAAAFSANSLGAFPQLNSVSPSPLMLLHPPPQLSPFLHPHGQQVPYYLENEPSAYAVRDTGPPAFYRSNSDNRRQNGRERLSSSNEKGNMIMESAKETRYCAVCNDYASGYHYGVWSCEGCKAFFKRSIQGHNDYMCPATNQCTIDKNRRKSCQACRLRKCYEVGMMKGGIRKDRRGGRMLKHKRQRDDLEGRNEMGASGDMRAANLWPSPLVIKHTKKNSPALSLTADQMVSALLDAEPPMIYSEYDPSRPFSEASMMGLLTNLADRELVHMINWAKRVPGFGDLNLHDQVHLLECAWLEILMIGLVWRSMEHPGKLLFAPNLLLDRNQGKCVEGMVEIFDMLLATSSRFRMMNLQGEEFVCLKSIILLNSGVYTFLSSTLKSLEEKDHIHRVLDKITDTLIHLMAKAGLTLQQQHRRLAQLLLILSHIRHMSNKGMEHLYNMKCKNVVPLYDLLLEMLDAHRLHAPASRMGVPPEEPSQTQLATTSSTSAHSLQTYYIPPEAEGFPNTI

SMILES | relative binding affinity (RBA) [4] | Effect [5] | Effect [6] [mg 100g-1] | Effect [8] [mg 100g-1] | further results
CCC(c1ccc(O)c(N)c1)C(CC)c1ccc(O)c(N)c1 (stereo not given) | 5.6 | 50.4 mg/100 g | 16.9 | 24.3 | inhibition [1]: 78%; inhibition [2]: 0%; Effect [3]: 44.7 mg/100 g; Effect [7]: 23.3 mg 100g-1; Effect [9]: 45.6 mg 100g-1; Effect [10]: 34.6 mg 100g-1; Effect [11]: 50.4 mg 100g-1 and 19.4 mg 100g-1
CCC(c1ccc(O)c(COC)c1)C(CC)c1ccc(O)c(COC)c1 (stereo not given) | 0.55 |  |  |  | 
CCC(c1ccc(O)c(C)c1)C(CC)c1ccc(O)c(C)c1 (stereo not given) | 8.1 | 44.9 mg 100g-1 | 10 | 40 | Effect [3]: 33.8 mg 100g-1; Effect [7]: 48.7 mg 100g-1; Effect [9]: 34 mg 100g-1
CCC(c1ccc(O)c(O)c1)C(CC)c1ccc(O)c(O)c1 (stereo not given) | 20 | 54.3 mg 100g-1 | 15.4 | 34.7 | Effect [12]: 50.1 mg 100g-1; inhibition [1]: 59%; inhibition [2]: 20%; Effect [13]: 39.2 mg 100g-1; inhibition [14]: 0%; Effect [15]: 39.1 mg 100g-1; Effect [16]: 24.6 mg 100g-1; Effect [17]: 24.1 mg 100g-1; Effect [18]: 49.8 mg 100g-1; Effect [19]: 43.6 mg 100g-1; Effect [10]: 37 mg 100g-1; inhibition [20]: 13%
CCC(c1ccc(O)c(CN(C)C)c1)C(CC)c1ccc(O)c(CN(C)C)c1 (stereo not given) | 0.04 |  |  |  | 
CCC(c1ccc(O)cc1Cl)C(CC)c1ccc(O)cc1Cl (stereo not given) | 2.2 |  |  |  | 
CCC(c1ccc(O)c(CO)c1)C(CC)c1ccc(O)c(CO)c1 (stereo not given) | 0.71 |  |  |  | 
CCC(c1ccc(O)c(Br)c1)C(CC)c1ccc(O)c(Br)c1 (stereo not given) | 0.25 |  |  |  | 
CCC(c1ccc(O)cc1O)C(CC)c1ccc(O)cc1O (stereo not given) | 32 | 51.4 mg 100g-1 | 16.4 | 41.6 | Effect [7]: 53.6 mg 100g-1
CCC(c1ccc(O)c(N(C)C)c1)C(CC)c1ccc(O)c(N(C)C)c1 (stereo not given) | < 0.01 |  |  |  | 
CCC(c1ccc(O)c(C(C)=O)c1)C(CC)c1ccc(O)c(C(C)=O)c1 (stereo not given) | < 0.01 |  |  |  | 
CC[C@H](c1ccc(O)cc1)[C@@H](CC)c1ccc(O)cc1 | 27 |  |  |  | 
CCC(c1ccc(O)c(Cl)c1)C(CC)c1ccc(O)c(Cl)c1 (stereo not given) | 1.6 |  |  |  | 
CCc1cc(O)ccc1C(CC)C(CC)c1ccc(O)cc1CC (stereo not given) | 3.7 |  |  |  | 
CCc1cc(C(CC)C(CC)c2ccc(O)c(CC)c2)ccc1O (stereo not given) | 1.2 |  |  |  | 
CCC(c1ccc(O)cc1F)C(CC)c1ccc(O)cc1F (stereo not given) | 6.5 | 43.9 mg 100g-1 | 16.9 | 39 | Effect [3]: 34.3 mg 100g-1; Effect [7]: 47.6 mg 100g-1; Effect [9]: 30.5 mg 100g-1
CCC(c1ccc(O)c([N+](=O)[O-])c1)C(CC)c1ccc(O)c([N+](=O)[O-])c1 (stereo not given) | 0.14 |  |  |  | 
CCOCc1cc(C(CC)C(CC)c2ccc(O)c(COCC)c2)ccc1O (stereo not given) | 0.18 |  |  |  | 
CCC(c1ccc(O)c(I)c1)C(CC)c1ccc(O)c(I)c1 (stereo not given) | 0.17 |  |  |  | 
CCC(c1ccc(O)cc1Br)C(CC)c1ccc(O)cc1Br (stereo not given) | 1.8 |  |  |  | 
CCC(c1ccc(O)c(F)c1)C(CC)c1ccc(O)c(F)c1 (stereo not given) | 16 | 44.9 mg 100g-1 | 10 | 43.4 | Effect [3]: 40.4 mg 100g-1; Effect [7]: 50.7 mg 100g-1; Effect [9]: 38.8 mg 100g-1
CCC(c1ccc(O)cc1C)C(CC)c1ccc(O)cc1C (stereo not given) | 8.5 | 43.9 mg 100g-1 | 16.9 | 36.6 | Effect [3]: 38.4 mg 100g-1; Effect [7]: 46.3 mg 100g-1; Effect [9]: 32.6 mg 100g-1
